How the values were obtained:
TNFα and IL-1β levels = assay: LPS Mouse Assay; format: in vivo, Balb-c mice
Procedure: 7 week old Balb-c mice (n=8) fed and watered ad libitum were dosed at time zero with the compound of Example 1 at 3, 30 and 300 mg/kg in a 1% methylcellulose vehicle by oral gavage (10 ml/kg). 30 minutes after drug treatment mice were intraperitoneally administered with 1 mg/kg LPS (5 ml/kg in normal saline). 2 hours post-LPS challenge blood samples were collected by cardiac puncture under isoflurane anaesthesia. Blood samples were allowed to clot at room temperature for 10 minutes and then put on ice until spun at 6000 g for 3 minutes at 4° C. and then stored at −20° C. until analysis by ELISA for TNFα and IL-1β levels. TNFα and IL-1β levels were reported as pg/ml of serum (mean±SEM) significance was evaluated by a Dunnett's test followed by a Kruskal-Wallis one way analysis followed by a Dunn's test.

[1] = system: clinical signs induced in the EAE model; assay: Experimental Autoimmune Encephalitis (EAE); format: in vivo, Male Lewis rats; details: 150 mg/kg orally twice a day from the day of inoculation; scored daily from day 7 post-inoculation
Procedure: Experimental Autoimmune Encephalitis (EAE)
Male Lewis rats (250-290 g) (n=10) were injected into both rear foot-pad with 0.1 ml of an emulsion containing equal parts of guinea-pig spinal cord, phosphate buffered saline and incomplete Freund's adjuvant with 8 mg/ml Mycobacterium tuberculosis H37Ra. The compound of Example 1 (150 mg/kg) was dosed orally in a 10% acacia gum vehicle (1 ml/kg) twice a day from the day of inoculation.
Body weights and neurological scores were observed daily from day 7 post-inoculation. The total daily score was calculated for each group and plotted over time. Non-parametric statistical analyses (Kruskal-Wallis) one-way analysis, followed by a Dunn's test, were employed.

T-cell proliferation = assay: in vitro T-cell proliferation (cellular assay); format: cell-based; details: assay not described
cytokine production = assay: in vitro cytokine production (cellular assay); format: cell-based; details: assay not described

SMILES | efficacy in the LPS mouse model (summary statement) (TNFα and IL-1β levels; mouse, in vivo) | reduction of TNFα levels post-LPS insult (TNFα and IL-1β levels; serum, ELISA, 3, 30 and 300 mg/kg by oral gavage 30 minutes before 1 mg/kg LPS i.p., blood 2 hours post-LPS, all three doses, dose-dependant) | reduction of IL-1β levels post-LPS (TNFα and IL-1β levels; serum, ELISA, oral gavage 30 minutes before 1 mg/kg LPS i.p., blood 2 hours post-LPS, at the top two doses (30 and 300 mg/kg)) | efficacy on clinical signs (neurological scores) in the EAE model [1] | inhibition of T-cell proliferation (T-cell proliferation) | inhibition of cytokine production (cytokine production)
O=C(O)c1cc(OC(=O)C2CCOCC2)c2c(c1)C(=O)c1cccc(OC(=O)C3CCOCC3)c1C2=O [Example 1, 4,5-Bis(tetrahydropyran-4-carbonyloxy)-9,10-dioxo-dihydroanthracene-2-carboxylic acid] | efficacy | significant efficacy on reducing TNFα levels | reduced IL-1β levels | significant efficacy |  | 
O=C(O)c1cc(O)c2c(c1)C(=O)c1cccc(O)c1C2=O [rhein, 1,8-dihydroxyanthraquinone-3-carboxylic acid] |  |  |  |  | fail to produce a response | fail to produce a response
